Measurements taken from ChEMBL document CHEMBL5104180, “Design, Synthesis, and Evaluation of New Sugar-Substituted Imidazole Derivatives as Selective c-MYC Transcription Repressors Targeting the Promoter G-Quadruplex” (J Med Chem, 2022).
pKd: −log10 of the molar value.

What was measured:
[1] = Binding affinity to human G-rich Htg22 DNA assessed as binding constant by SPR analysis
[2] = target: Quadruplex DNA; experiment: Binding affinity to c-MYC G4 quadruplex DNA Pu22 (unknown origin) assessed as binding constant by SPR analysis; format: nucleic-acid assay
[3] = Binding affinity to Hairpin DNA (unknown origin) assessed as binding constant by SPR analysis
[4] = Binding affinity to G-rich KRAS DNA (unknown origin) assessed as binding constant by SPR analysis
[5] = Binding affinity to G-rich NRAS RNA (unknown origin) assessed as binding constant by SPR analysis
[6] = Binding affinity to G-rich HRAS DNA (unknown origin) assessed as binding constant by SPR analysis
[7] = target: Quadruplex DNA; experiment: Binding affinity to c-MYC G4- quadruplex DNA Pu22 (unknown origin) assessed as binding constant by SPR analysis; format: nucleic-acid assay
[8] = test system: Quadruplex DNA; experiment: Stabilization of c-MYC G4 quadruplex DNA Pu22 (unknown origin) assessed as change in melting temperature at 2 uM by CD spectroscopy; format: nucleic-acid assay
[9] = target: RNA; experiment: Binding affinity to NRAS RNA mutant (unknown origin) assessed as binding constant by SPR analysis

CCn1c2ccccc2c2cc(-c3nc(-c4ccc(N5CCN(C)CC5)cc4)c(-c4ccc(N5CCN(Cc6cn(CCOCCO)nn6)CC5)cc4)[nH]3)ccc21
pKd [1]: < 4.70 | pKd [2]: < 4.70 | pKd [3]: < 4.70 | pKd [4]: 5.25 | pKd [5]: 4.84 | pKd [6]: 5.55 | pKd [7]: 5.92 | ΔTm [8]: 18.7 °C | pKd [9]: < 4.70

CCn1c2ccccc2c2cc(-c3nc(-c4ccc(N5CCN(C)CC5)cc4)c(-c4ccc(N5CCN(C)CC5)cc4)n3-c3ccc(O[C@@H]4O[C@H](CO)[C@@H](O)[C@H](O)[C@H]4O)cc3)ccc21
pKd [1]: < 4.70 | pKd [2]: < 4.70 | pKd [3]: < 4.70 | pKd [4]: 4.90 | pKd [5]: 4.77 | pKd [6]: 5.17 | pKd [7]: 5.74 | ΔTm [8]: 15.5 °C | pKd [9]: < 4.70

CCn1c2ccccc2c2cc(-c3nc(-c4ccc(N5CCN(C)CC5)cc4)c(-c4ccc(N5CCN(C)CC5)cc4)n3-c3ccc(OCCOCCOC(C)=O)cc3)ccc21
pKd [1]: < 4.70 | pKd [2]: < 4.70 | pKd [3]: < 4.70 | pKd [4]: 4.99 | pKd [5]: < 4.70 | pKd [6]: 4.72 | pKd [7]: 5.40 | ΔTm [8]: 21.2 °C | pKd [9]: < 4.70

CCn1c2ccccc2c2cc(-c3nc(-c4ccc(N5CCN(C)CC5)cc4)c(-c4ccc(N5CCN(C)CC5)cc4)n3-c3ccc(O)cc3)ccc21
ΔTm [8]: 14.5 °C

CCn1c2ccccc2c2cc(-c3nc(-c4ccc(N5CCN(C)CC5)cc4)c(-c4ccc(N5CCN(C)CC5)cc4)n3-c3ccc(OCCCO)cc3)ccc21
ΔTm [8]: 9.2 °C

CCn1c2ccccc2c2cc(-c3nc(-c4ccc(N5CCN(C)CC5)cc4)c(-c4ccc(N5CCN(C)CC5)cc4)n3-c3ccc(OCCCOC(C)=O)cc3)ccc21
ΔTm [8]: 6.8 °C

CCn1c2ccccc2c2cc(-c3nc(-c4ccc(N5CCN(C)CC5)cc4)c(-c4ccc(N5CCN(C)CC5)cc4)n3-c3ccc(OCc4ccccc4)cc3)ccc21
ΔTm [8]: 7.6 °C

CCn1c2ccccc2c2cc(-c3nc(-c4ccc(N5CCN(C)CC5)cc4)c(-c4ccc(N5CCN(C)CC5)cc4)n3CCOC(C)=O)ccc21
ΔTm [8]: 11.1 °C

CCn1c2ccccc2c2cc(-c3nc(-c4ccc(N5CCN(C)CC5)cc4)c(-c4ccc(N5CCN(C)CC5)cc4)n3CCOCCO)ccc21
ΔTm [8]: 11.6 °C

CCn1c2ccccc2c2cc(-c3nc(-c4ccc(N5CCN(C)CC5)cc4)c(-c4ccc(N5CCN(C)CC5)cc4)n3CCOCCOC(C)=O)ccc21
ΔTm [8]: 10.4 °C

COc1ccc(-n2c(-c3ccc4c(c3)c3ccccc3n4Cc3cn(CCOCCO)nn3)nc(-c3ccc(N4CCN(C)CC4)cc3)c2-c2ccc(N3CCN(C)CC3)cc2)cc1
ΔTm [8]: 13.4 °C

COc1ccc(-n2c(-c3ccc4c(c3)c3ccccc3n4Cc3cn([C@@H]4O[C@H](COC(C)=O)[C@@H](OC(C)=O)[C@H](OC(C)=O)[C@H]4OC(C)=O)nn3)nc(-c3ccc(N4CCN(C)CC4)cc3)c2-c2ccc(N3CCN(C)CC3)cc2)cc1
ΔTm [8]: 13.4 °C

CCn1c2ccccc2c2cc(-c3nc(-c4ccc(N5CCN(C)CC5)cc4)c(-c4ccc(N5CCN(C)CC5)cc4)n3-c3ccc(OCCOCCO[C@@H]4O[C@H](CO)[C@@H](O)[C@H](O)[C@H]4N)cc3)ccc21 (single isomer, unassigned)
pKd [1]: < 4.70 | pKd [2]: < 4.70 | pKd [3]: < 4.70 | pKd [4]: 5.64 | pKd [5]: 5.24 | pKd [6]: 5.64 | pKd [7]: 6.10 | ΔTm [8]: 21.7 °C | pKd [9]: < 4.70

CCn1c2ccccc2c2cc(-c3nc(-c4ccc(N5CCN(C)CC5)cc4)c(-c4ccc(N5CCN(C)CC5)cc4)n3CCOCCO[C@@H]3O[C@H](CO)[C@@H](O)[C@H](O)[C@H]3O)ccc21 (single isomer, unassigned)
pKd [1]: < 4.70 | pKd [2]: < 4.70 | pKd [3]: < 4.70 | pKd [4]: 4.89 | pKd [5]: < 4.70 | pKd [6]: 4.86 | pKd [7]: 5.46 | ΔTm [8]: 16.3 °C | pKd [9]: < 4.70

CCn1c2ccccc2c2cc(-c3nc(-c4ccc(N5CCN(C)CC5)cc4)c(-c4ccc(N5CCN(Cc6cn([C@@H]7O[C@H](CO)[C@@H](O)[C@H](O)[C@H]7O)nn6)CC5)cc4)[nH]3)ccc21 (single isomer, unassigned)
pKd [1]: < 4.70 | pKd [2]: < 4.70 | pKd [3]: < 4.70 | pKd [4]: 5.15 | pKd [5]: 4.93 | pKd [6]: 5.48 | pKd [7]: 5.72 | ΔTm [8]: 15.8 °C | pKd [9]: < 4.70

CCn1c2ccccc2c2cc(-c3nc(-c4ccc(N5CCN(C)CC5)cc4)c(-c4ccc(N5CCN(C)CC5)cc4)n3-c3ccc(OCCCOC4(C)O[C@H]5O[C@H](CO)[C@@H](O)[C@H](O)[C@H]5O4)cc3)ccc21 (single isomer, unassigned)
ΔTm [8]: 14.6 °C

CCn1c2ccccc2c2cc(-c3nc(-c4ccc(N5CCN(C)CC5)cc4)c(-c4ccc(N5CCN(C)CC5)cc4)n3-c3ccc(OCCCO[C@@H]4O[C@H](COC(C)=O)[C@@H](OC(C)=O)[C@H](OC(C)=O)[C@H]4OC(C)=O)cc3)ccc21 (single isomer, unassigned)
ΔTm [8]: 13.7 °C

CCn1c2ccccc2c2cc(-c3nc(-c4ccc(N5CCN(C)CC5)cc4)c(-c4ccc(N5CCN(C)CC5)cc4)n3-c3ccc(OCCCO[C@@H]4O[C@H](COC(C)=O)[C@H](OC(C)=O)[C@H](OC(C)=O)[C@H]4OC(C)=O)cc3)ccc21 (single isomer, unassigned)
ΔTm [8]: 10.9 °C

CCn1c2ccccc2c2cc(-c3nc(-c4ccc(N5CCN(C)CC5)cc4)c(-c4ccc(N5CCN(C)CC5)cc4)n3-c3ccc(OCCOCCO[C@@H]4O[C@H](COC(C)=O)[C@@H](OC(C)=O)[C@H](OC(C)=O)[C@H]4NC(=O)C(F)(F)F)cc3)ccc21 (single isomer, unassigned)
ΔTm [8]: 14 °C

CCn1c2ccccc2c2cc(-c3nc(-c4ccc(N5CCN(C)CC5)cc4)c(-c4ccc(N5CCN(C)CC5)cc4)n3-c3ccc(OCCOCCO[C@@H]4O[C@H](COC(C)=O)[C@@H](OC(C)=O)[C@H](OC(C)=O)[C@H]4OC(C)=O)cc3)ccc21 (single isomer, unassigned)
ΔTm [8]: 14.2 °C

CCn1c2ccccc2c2cc(-c3nc(-c4ccc(N5CCN(C)CC5)cc4)c(-c4ccc(N5CCN(C)CC5)cc4)n3-c3ccc(OCCOCCO[C@@H]4O[C@H](COC(C)=O)[C@H](OC(C)=O)[C@H](OC(C)=O)[C@H]4OC(C)=O)cc3)ccc21 (single isomer, unassigned)
ΔTm [8]: 12.8 °C

CCn1c2ccccc2c2cc(-c3nc(-c4ccc(N5CCN(C)CC5)cc4)c(-c4ccc(N5CCN(C)CC5)cc4)n3-c3ccc(O[C@@H]4O[C@H](COC(C)=O)[C@@H](OC(C)=O)[C@H](OC(C)=O)[C@H]4OC(C)=O)cc3)ccc21 (single isomer, unassigned)
ΔTm [8]: 10.7 °C

CCn1c2ccccc2c2cc(-c3nc(-c4ccc(N5CCN(C)CC5)cc4)c(-c4ccc(N5CCN(C)CC5)cc4)n3CCOCCO[C@@H]3O[C@H](COC(C)=O)[C@@H](OC(C)=O)[C@H](OC(C)=O)[C@H]3OC(C)=O)ccc21 (single isomer, unassigned)
ΔTm [8]: 11.4 °C

CCn1c2ccccc2c2cc(-c3nc(-c4ccc(N5CCN(C)CC5)cc4)c(-c4ccc(N5CCN(C)CC5)cc4)n3CCOCCO[C@@H]3O[C@H](COC(C)=O)[C@H](OC(C)=O)[C@H](OC(C)=O)[C@H]3OC(C)=O)ccc21 (single isomer, unassigned)
ΔTm [8]: 10.3 °C

CCn1c2ccccc2c2cc(-c3nc(-c4ccc(N5CCN(C)CC5)cc4)c(-c4ccc(N5CCN(C)CC5)cc4)n3CCOCCO[C@H]3OC(CO)C(O)[C@@H](O)[C@@H]3O)ccc21 (single isomer, unassigned)
ΔTm [8]: 14.9 °C

CCn1c2ccccc2c2cc(-c3nc(-c4ccc(N5CCN(C)CC5)cc4)c(-c4ccc(N5CCN(C)CC5)cc4)n3CCO[C@@H]3O[C@H](CO)[C@@H](O)[C@H](O)[C@H]3O)ccc21 (single isomer, unassigned)
ΔTm [8]: 14.7 °C

CCn1c2ccccc2c2cc(-c3nc(-c4ccc(N5CCN(C)CC5)cc4)c(-c4ccc(N5CCN(C)CC5)cc4)n3CCO[C@@H]3O[C@H](CO)[C@H](O)[C@H](O)[C@H]3O)ccc21 (single isomer, unassigned)
ΔTm [8]: 11.3 °C

CCn1c2ccccc2c2cc(-c3nc(-c4ccc(N5CCN(C)CC5)cc4)c(-c4ccc(N5CCN(C)CC5)cc4)n3CCO[C@@H]3O[C@H](COC(C)=O)[C@@H](OC(C)=O)[C@H](OC(C)=O)[C@H]3OC(C)=O)ccc21 (single isomer, unassigned)
ΔTm [8]: 7.1 °C

CCn1c2ccccc2c2cc(-c3nc(-c4ccc(N5CCN(C)CC5)cc4)c(-c4ccc(N5CCN(C)CC5)cc4)n3CCO[C@@H]3O[C@H](COC(C)=O)[C@H](OC(C)=O)[C@H](OC(C)=O)[C@H]3OC(C)=O)ccc21 (single isomer, unassigned)
ΔTm [8]: 9.3 °C

CCn1c2ccccc2c2cc(-c3nc(-c4ccc(N5CCN(C)CC5)cc4)c(-c4ccc(N5CCN(Cc6cn([C@@H]7O[C@H](COC(C)=O)[C@@H](OC(C)=O)[C@H](OC(C)=O)[C@H]7OC(C)=O)nn6)CC5)cc4)[nH]3)ccc21 (single isomer, unassigned)
ΔTm [8]: 15.4 °C

CCn1c2ccccc2c2cc(-c3nc(-c4ccc(N5CCN(C)CC5)cc4)c(-c4ccc(N5CCN(Cc6cn([C@@H]7O[C@H](COC(C)=O)[C@H](OC(C)=O)[C@H](OC(C)=O)[C@H]7OC(C)=O)nn6)CC5)cc4)[nH]3)ccc21 (single isomer, unassigned)
ΔTm [8]: 15.1 °C

COc1ccc(-n2c(-c3ccc4c(c3)c3ccccc3n4Cc3cn([C@@H]4O[C@H](CO)[C@@H](O)[C@H](O)[C@H]4O)nn3)nc(-c3ccc(N4CCN(C)CC4)cc3)c2-c2ccc(N3CCN(C)CC3)cc2)cc1 (single isomer, unassigned)
ΔTm [8]: 10.3 °C

COc1ccc(-n2c(-c3ccc4c(c3)c3ccccc3n4Cc3cn([C@@H]4O[C@H](CO)[C@H](O)[C@H](O)[C@H]4O)nn3)nc(-c3ccc(N4CCN(C)CC4)cc3)c2-c2ccc(N3CCN(C)CC3)cc2)cc1 (single isomer, unassigned)
ΔTm [8]: 12.4 °C

COc1ccc(-n2c(-c3ccc4c(c3)c3ccccc3n4Cc3cn([C@@H]4O[C@H](COC(C)=O)[C@H](OC(C)=O)[C@H](OC(C)=O)[C@H]4OC(C)=O)nn3)nc(-c3ccc(N4CCN(C)CC4)cc3)c2-c2ccc(N3CCN(C)CC3)cc2)cc1 (single isomer, unassigned)
ΔTm [8]: 13.3 °C
